Results reported in ChEMBL document CHEMBL5244273, “Tuberculosis: An Overview of the Immunogenic Response, Disease Progression, and Medicinal Chemistry Efforts in the Last Decade toward the Development of Potential Drugs for Extensively Drug-Resistant Tuberculosis Strains” (J Med Chem, 2021).
Converted amounts (≈) assume the structure as drawn.

Key:
J774 = experiment: Cytotoxicity against mouse J774 cells incubated for 24 hrs by MTT assay; format: toxicity, cell-based; conditions: j774, 24 h
[1] = test system: Mycobacterium tuberculosis; experiment: Antimycobacterial activity against non replicating Mycobacterium tuberculosis by broth dilution method; format: functional
[2] = test system: Mycobacterium tuberculosis; experiment: Antimycobacterial activity against Mycobacterium tuberculosis H37Rv ATCC 27294 by broth dilution method; format: functional
[3] = Selectivity index, ratio of GI50 for cytotoxicity against HUVEC cells to MIC for antitubercular activity against dormant stage of Mycobacterium tuberculosis H37Ra; format: toxicity, cell-based; conditions: human, read-out: Selectivity Index
[4] = Selectivity index, ratio of GI50 for cytotoxicity against human HeLa cells to MIC for antitubercular activity against active stage of Mycobacterium tuberculosis H37Ra; format: toxicity, cell-based; conditions: read-out: Selectivity Index
[5] = Selectivity index, ratio of GI50 for cytotoxicity against HUVEC cells to MIC for antitubercular activity against active stage of Mycobacterium tuberculosis H37Ra; format: toxicity, cell-based; conditions: human, read-out: Selectivity Index
[6] = Selectivity index, ratio of GI50 for cytotoxicity against human HeLa cells to MIC for antitubercular activity against dormant stage of Mycobacterium tuberculosis H37Ra; format: toxicity, cell-based; conditions: read-out: Selectivity Index
MCF7 = experiment: Cytotoxicity against human MCF7 cells assessed as cell growth inhibition; format: functional
[7] = Cytotoxicity against HUVEC cells assessed as cell growth inhibition; format: toxicity, cell-based; conditions: human
[8] = Selectivity index, ratio of GI50 for cytotoxicity against human MCF7 cells to MIC for antitubercular activity against active stage of Mycobacterium tuberculosis H37Ra; format: toxicity, cell-based; conditions: read-out: Selectivity Index
[9] = test system: Mycobacterium tuberculosis; experiment: Antitubercular activity against dormant stage of Mycobacterium tuberculosis H37Ra; format: functional
[10] = test system: Mycobacterium tuberculosis; experiment: Antitubercular activity against active stage of Mycobacterium tuberculosis H37Ra; format: functional
[11] = Selectivity index, ratio of GI50 for cytotoxicity against human MCF7 cells to MIC for antitubercular activity against dormant stage of Mycobacterium tuberculosis H37Ra; format: toxicity, cell-based; conditions: read-out: Selectivity Index
HeLa = experiment: Cytotoxicity against human HeLa cells assessed as cell growth inhibition; format: functional
[12] = test system: Mycobacterium tuberculosis; experiment: Antimycobacterial activity against Mycobacterium tuberculosis H37Rv assessed as inhibition of bacterial growth incubated for 5 days by alamar blue assay; format: functional; conditions: 120 h, time 5 day
[13] = test system: Mycobacterium tuberculosis; experiment: Antimycobacterial activity against Mycobacterium tuberculosis H37Rv; format: functional
[14] = test system: Mycobacterium tuberculosis; experiment: Antimycobacterial activity against Mycobacterium tuberculosis H37Rv incubated for 5 weeks; format: functional; conditions: 840 h
[15] = test system: Mycobacterium tuberculosis; experiment: Antimycobacterial activity against Mycobacterium tuberculosis H37Rv incubated for 2 weeks; format: functional; conditions: 336 h
[16] = test system: Mycobacterium tuberculosis; experiment: Antimycobacterial activity against Mycobacterium tuberculosis H37Rv incubated for 3 weeks; format: functional; conditions: 504 h
[17] = test system: Mycobacterium tuberculosis; experiment: Antimycobacterial activity against Mycobacterium tuberculosis H37Rv incubated for 4 weeks; format: functional; conditions: 672 h
[18] = test system: Mycobacterium tuberculosis; experiment: Antitubercular activity against Mycobacterium tuberculosis H37Rv assessed as inhibition of bacterial growth by alamar blue assay; format: functional

SMILES	Activity (J774)	MIC [1]	MIC [2]	GI50 (MCF7)	GI50 [7]	GI50 (HeLa)	other results
Cc1ccccc1OCc1cn(C[C@@]2(C)Cn3cc([N+](=O)[O-])nc3O2)nn1	> 40 µg/mL	2 µg/mL (≈ 5.4 µM)	0.5 µg/mL (≈ 1.35 µM)	–	–	–	–
C[C@]1(Cn2cc(COc3ccccc3F)nn2)Cn2cc([N+](=O)[O-])nc2O1	> 40 µg/mL	0.5 µg/mL (≈ 1.34 µM)	0.25 µg/mL (≈ 0.668 µM)	–	–	–	–
C[C@]1(Cn2cc(COc3ccc(Br)cc3)nn2)Cn2cc([N+](=O)[O-])nc2O1	> 40 µg/mL	0.25 µg/mL (≈ 0.574 µM)	0.12 µg/mL (≈ 0.276 µM)	–	–	–	–
C[C@]1(Cn2cc(COc3cccc(Cl)c3)nn2)Cn2cc([N+](=O)[O-])nc2O1	> 40 µg/mL	1 µg/mL (≈ 2.56 µM)	0.5 µg/mL (≈ 1.28 µM)	–	–	–	–
C[C@]1(Cn2cc(-c3ccc(Oc4ccccc4)cc3)nn2)Cn2cc([N+](=O)[O-])nc2O1	> 40 µg/mL	2 µg/mL (≈ 4.78 µM)	2 µg/mL (≈ 4.78 µM)	–	–	–	–
CC(C)c1ccc(OCc2cn(C[C@@]3(C)Cn4cc([N+](=O)[O-])nc4O3)nn2)cc1	> 40 µg/mL	1 µg/mL (≈ 2.51 µM)	0.5 µg/mL (≈ 1.25 µM)	–	–	–	–
C[C@]1(Cn2cc(COc3ccc(OC(F)(F)F)cc3)nn2)Cn2cc([N+](=O)[O-])nc2O1	> 40 µg/mL	4 µg/mL (≈ 9.08 µM)	2 µg/mL (≈ 4.54 µM)	–	–	–	–
C[C@]1(Cn2cc(COc3ccc(C(F)(F)F)cc3)nn2)Cn2cc([N+](=O)[O-])nc2O1	> 40 µg/mL	2 µg/mL (≈ 4.71 µM)	1 µg/mL (≈ 2.36 µM)	–	–	–	–
CCCCCc1cn(C[C@@]2(C)Cn3cc([N+](=O)[O-])nc3O2)nn1	> 40 µg/mL	4 µg/mL (≈ 12.5 µM)	2 µg/mL (≈ 6.24 µM)	–	–	–	–
COC(=O)c1sccc1NC(=O)[C@@H]1CCCN1	–	–	–	163 µg/mL (≈ 641 µM)	91.3 µg/mL (≈ 359 µM)	90.4 µg/mL (≈ 355 µM)	selectivity ratio [3]: 13.6; selectivity ratio [4]: 5.7; selectivity ratio [5]: 5.75; selectivity ratio [6]: 13.4; selectivity ratio [8]: 10.3; MIC [9]: 6.74 µg/mL (≈ 26.5 µM); MIC [10]: 15.9 µg/mL (≈ 62.4 µM); selectivity ratio [11]: 24.2
COC(=O)c1ccsc1NC(=O)[C@H]1CCCN1	–	–	–	179 µg/mL (≈ 704 µM)	95.8 µg/mL (≈ 377 µM)	91.4 µg/mL (≈ 359 µM)	selectivity ratio [3]: 10.9; selectivity ratio [4]: 8.43; selectivity ratio [5]: 8.84; selectivity ratio [6]: 10.4; selectivity ratio [8]: 16.5; MIC [9]: 8.78 µg/mL (≈ 34.5 µM); MIC [10]: 10.8 µg/mL (≈ 42.6 µM); selectivity ratio [11]: 20.4
O=C(OC1CCCCC1)c1ccsc1NC(=O)[C@@H]1CCCN1	–	–	–	162 µg/mL (≈ 504 µM)	137 µg/mL (≈ 426 µM)	92.8 µg/mL (≈ 288 µM)	selectivity ratio [3]: 27.9; selectivity ratio [4]: 3.76; selectivity ratio [5]: 5.57; selectivity ratio [6]: 18.9; selectivity ratio [8]: 6.59; MIC [9]: 4.92 µg/mL (≈ 15.3 µM); MIC [10]: 24.6 µg/mL (≈ 76.4 µM); selectivity ratio [11]: 33
COC(=O)c1ccsc1NC(=O)[C@@H]1CCCN1	–	–	–	> 250 µg/mL	> 250 µg/mL	> 250 µg/mL	selectivity ratio [3]: > 74.6; selectivity ratio [4]: > 20.9; selectivity ratio [5]: > 20.9; selectivity ratio [6]: > 74.6; selectivity ratio [8]: > 20.9; MIC [9]: 3.35 µg/mL (≈ 13.2 µM); MIC [10]: 12 µg/mL (≈ 47.1 µM); selectivity ratio [11]: > 74.6
C[C@]1(Cn2cc(COc3ccccn3)nn2)Cn2cc([N+](=O)[O-])nc2O1	> 40 µg/mL	2 µg/mL (≈ 5.6 µM)	1 µg/mL (≈ 2.8 µM)	–	–	–	–
O=C(O)c1cn(C2CC2)c2cc(N3CCNCC3)c(F)cc2c1=O [CIPROFLOXACIN]	–	–	–	–	–	–	MIC [12]: 3.12 µg/mL (≈ 9.42 µM); MIC [13]: 3.12 µg/mL (≈ 9.42 µM); MIC [14]: 0.25 µg/mL (≈ 0.754 µM); MIC [15]: 0.25 µg/mL (≈ 0.754 µM); MIC [16]: 0.25 µg/mL (≈ 0.754 µM); MIC [17]: 0.25 µg/mL (≈ 0.754 µM); MIC [18]: 3.12 µg/mL (≈ 9.43 µM)
CC(=O)O[C@H]1C(=O)[C@@]2(C)[C@H]([C@H](OC(=O)c3ccccc3)[C@]3(O)C[C@H](OC(=O)[C@H](O)[C@@H](NC(=O)c4ccccc4)c4ccccc4)C(C)=C1C3(C)C)[C@]1(OC(C)=O)CO[C@@H]1C[C@@H]2O [PACLITAXEL]	–	–	–	0.0021 µg/mL (≈ 0.00246 µM)	> 10 µg/mL	0.0048 µg/mL (≈ 0.00562 µM)	–
